Laboratory results taken from article PMC6297231 (Nature Communications, 2018).

Tests used:
Test in all cases: cells
A2058 = settings: Homo sapiens, A2058, 6 h, read-out: AZD5991 6h EC50
Experimental: (§1) Cells were plated at 3000 cells/well in 384-well white plates in corresponding cell growth media. […] Caspase-3/7 activation was subsequently determined using a Caspase-Glo 3/7 Reagent (Promega) and viability was assayed using the CellTiter-Glo Reagent (Promega) as described in manufacturer’s instructions. Dose–response curves for caspase-3/7 activation and viability were plotted and analyzed (including EC50 and GI50 determination) using GraphPad Prism. Percentage of caspase activation was calculated against the maximum caspase activation value (100%) obtained with a proprietary cell kill control.

A375 = settings: Homo sapiens, A-375, 6 h, read-out: AZD5991 6h EC50
Experimental: as §1

Bjab = settings: Homo sapiens, 6 h, read-out: AZD5991 6h EC50
Experimental: as §1

DLD1 = settings: Homo sapiens, DLD-1, 6 h, read-out: AZD5991 6h EC50
Experimental: as §1

DMS53 = settings: Homo sapiens, DMS-53, 6 h, read-out: AZD5991 6h EC50
Experimental: as §1

FaDu = settings: Homo sapiens, 6 h, read-out: AZD5991 6h EC50
Experimental: as §1

H1048 = settings: Homo sapiens, NCI-H1048, 6 h, read-out: AZD5991 6h EC50
Experimental: as §1

H1568 = settings: NCI-H1568, 6 h, read-out: AZD5991 6h EC50
Experimental: as §1

H1734 = settings: Homo sapiens, NCI-H1734, 6 h, read-out: AZD5991 6h EC50
Experimental: as §1

H196 = settings: NCI-H196, 6 h, read-out: AZD5991 6h EC50
Experimental: as §1

H209 = settings: Homo sapiens, NCI-H209, 6 h, read-out: AZD5991 6h EC50
Experimental: as §1

H322 = settings: NCI-H322, 6 h, read-out: AZD5991 6h EC50
Experimental: as §1

H446 = settings: Homo sapiens, NCI-H446, 6 h, read-out: AZD5991 6h EC50
Experimental: as §1

H647 = settings: Homo sapiens, NCI-H647, 6 h, read-out: AZD5991 6h EC50
Experimental: as §1

HCC1954 = settings: Homo sapiens, HCC1954, 6 h, read-out: AZD5991 6h EC50
Experimental: as §1

JEKO1 = settings: Homo sapiens, JeKo-1, 6 h, read-out: AZD5991 6h EC50
Experimental: as §1

L363 = settings: Homo sapiens, L-363, 6 h, read-out: AZD5991 6h EC50
Experimental: as §1

LP1 = settings: Homo sapiens, LP-1, 6 h, read-out: AZD5991 6h EC50
Experimental: as §1

LUDLU1 = settings: LUDLU-1, 6 h, read-out: AZD5991 6h EC50
Experimental: as §1

LnCAP = settings: Homo sapiens, 6 h, read-out: AZD5991 6h EC50
Experimental: as §1

MAVER1 = settings: Homo sapiens, Maver1, 6 h, read-out: AZD5991 6h EC50
Experimental: as §1

MINO = settings: Homo sapiens, 6 h, read-out: AZD5991 6h EC50
Experimental: as §1

MM1S = settings: Homo sapiens, MM1.S, 6 h, read-out: AZD5991 6h EC50
Experimental: as §1

Namalwa = settings: 6 h, read-out: AZD5991 6h EC50
Experimental: as §1

OCILY10 = settings: Homo sapiens, OCI-Ly10, 6 h, read-out: AZD5991 6h EC50
Experimental: as §1

OCILY1 = settings: Homo sapiens, OCI-Ly1, 6 h, read-out: AZD5991 6h EC50
Experimental: as §1

REC1 = settings: Homo sapiens, Rec1, 6 h, read-out: AZD5991 6h EC50
Experimental: as §1

RPMI8226 = settings: Homo sapiens, RPMI-8226, 6 h, read-out: AZD5991 6h EC50
Experimental: as §1

Raji = settings: Homo sapiens, 6 h, read-out: AZD5991 6h EC50
Experimental: as §1

SNU16 = settings: Homo sapiens, SNU-16, 6 h, read-out: AZD5991 6h EC50
Experimental: as §1

Sudhl16 = settings: Homo sapiens, SU-DHL-16, 6 h, read-out: AZD5991 6h EC50
Experimental: as §1

Sudhl4 = settings: Homo sapiens, SU-DHL-4, 6 h, read-out: AZD5991 6h EC50
Experimental: as §1

Toledo = settings: Homo sapiens, 6 h, read-out: AZD5991 6h EC50
Experimental: as §1

VAL = settings: 6 h, read-out: AZD5991 6h EC50
Experimental: as §1

WSUDLCL2 = settings: Homo sapiens, WSUDLCL2, 6 h, read-out: AZD5991 6h EC50
Experimental: as §1

Z-138 = settings: Homo sapiens, Z-138, 6 h, read-out: AZD5991 6h EC50
Experimental: as §1

Q: What does the source list for `Cc1c2c(nn1C)CSCc1cc(n(C)n1)CSc1cc(c3ccccc3c1)OCCCc1c(C(=O)O)n(C)c3c-2c(Cl)ccc13` (atropisomer, axis not shown; (Ra)) [(Ra)-7]?
A: EC50 (A2058): > 30 µM; EC50 (A375): > 30 µM; EC50 (Bjab): 0.047 µM; EC50 (DLD1): 29.1 µM; EC50 (DMS53): > 30 µM; EC50 (FaDu): 23.3 µM; EC50 (H1048): > 30 µM; EC50 (H1568): 0.3 µM; EC50 (H1734): 20.1 µM; EC50 (H196): > 30 µM; EC50 (H209): > 30 µM; EC50 (H322): > 30 µM; EC50 (H446): > 30 µM; EC50 (H647): > 30 µM; EC50 (HCC1954): 0.682 µM; EC50 (JEKO1): 0.512 µM; EC50 (L363): 0.09 µM; EC50 (LP1): 0.249 µM; EC50 (LUDLU1): 1.89 µM; EC50 (LnCAP): > 30 µM; EC50 (MAVER1): 27.8 µM; EC50 (MINO): 1.29 µM; EC50 (MM1S): 3.6 µM; EC50 (Namalwa): 0.067 µM; EC50 (OCILY10): 0.117 µM; EC50 (OCILY1): 0.547 µM; EC50 (REC1): 2.01 µM; EC50 (RPMI8226): 0.076 µM; EC50 (Raji): 7.4 µM; EC50 (SNU16): 0.183 µM; EC50 (Sudhl16): 0.139 µM; EC50 (Sudhl4): 0.266 µM; EC50 (Toledo): 1.26 µM; EC50 (VAL): 0.172 µM; EC50 (WSUDLCL2): 0.159 µM; EC50 (Z-138): > 30 µM
